Assay results as given in ChEMBL document CHEMBL1201862, “PubChem BioAssay data set” (2004).
Activity calls are given as the source filed them.

Experiments:
[1] = NIH-3T3 fibroblast cytotoxicity, dose response, cytotoxicity control, cell-based, fluorescence, Alamar Blue, secondary assay (AID 2327); format: functional;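 further: NIH-3T3 mouse fibroblasts cultured with fluconazole at 8 µg/mL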
[2] = inhibitors of firefly luciferase expression or activity, dose response, H4 neuroglioma cells, luminescence (AID 1990); format: functional, cell-based
[3] = test system: Streptococcus sp. 'group A'; assay: growth inhibition of control SK(-) GAS strain, dose response, counter-screen for streptokinase expression inhibitor project, luminescence, kanamycin, BacTiterGlo, confirmation (AID 1900); format: functional, organism-based
[4] = test system: BJ; assay: cytotoxicity toward BJ-TERT fibroblasts, dose response, cell-based, RAS-independent, luminescence (AID 1933); format: functional; details: Homo sapiens
[5] = Luminescence Cell-Based Dose Response HTS to Identify Inhibitors of 5'UTR Stem-Loop Driven Prion Protein mRNA Translation in H4 Neuroglioblastoma Cells. [Related pubchem assays: 1827 (Project Summary), 1813 (Primary HTS)]; format: functional
[6] = inhibitors of SNCA 5'UTR-driven reporter translation, confirmation, H4 neuroglioma cells, luminescence (AID 1988); format: functional, cell-based
[7] = test system: BJ; assay: cells; format: functional, cell-based; details: Homo sapiens
[8] = C. albicans growth with fluconazole, confirmation, fluorescence, retest (AID 2467); format: functional, cell-based
[9] = test system: BJ; assay: cytotoxicity toward BJ-TERT-LT-ST fibroblasts, dose response, cell-based, RAS-independent, luminescence (AID 1935); format: functional; details: Homo sapiens;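 further: BJ fibroblasts immortalized with TERT plus LT and ST oncogenes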
[10] = cytotoxicity toward DRD oncogenic fibroblasts, dose response, cell-based, non-viral oncogenic, luminescence (AID 1934); format: functional; details: Homo sapiens
[11] = test system: Streptococcus; assay: Group A Streptococcus viability loss, dose response, counter-screen for streptokinase expression inhibitor project, luminescence, BacTiterGlo (AID 1915); format: functional, organism-based;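 further: potency for reduction of bacterial viability or growth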
[12] = biological target: Beta-galactosidase (Escherichia coli, UniProt Q8VNN2); assay: beta-galactosidase enzyme inhibitors and activators, dose response, artefact control for CCR6 antagonist project, biochemical, E. coli enzyme, set 3 (AID 504712); format: functional
[13] = biological target: T1, Short transient receptor potential channel 4 (Mus musculus, UniProt Q9QUQ5); assay: mouse TRPC4 channel activators, dose response, cell-based, HEK293 TRPC4/mu-opioid, Fluo-4 calcium (AID 434937); format: functional
T1 sequence (Q9QUQ5 whole entry): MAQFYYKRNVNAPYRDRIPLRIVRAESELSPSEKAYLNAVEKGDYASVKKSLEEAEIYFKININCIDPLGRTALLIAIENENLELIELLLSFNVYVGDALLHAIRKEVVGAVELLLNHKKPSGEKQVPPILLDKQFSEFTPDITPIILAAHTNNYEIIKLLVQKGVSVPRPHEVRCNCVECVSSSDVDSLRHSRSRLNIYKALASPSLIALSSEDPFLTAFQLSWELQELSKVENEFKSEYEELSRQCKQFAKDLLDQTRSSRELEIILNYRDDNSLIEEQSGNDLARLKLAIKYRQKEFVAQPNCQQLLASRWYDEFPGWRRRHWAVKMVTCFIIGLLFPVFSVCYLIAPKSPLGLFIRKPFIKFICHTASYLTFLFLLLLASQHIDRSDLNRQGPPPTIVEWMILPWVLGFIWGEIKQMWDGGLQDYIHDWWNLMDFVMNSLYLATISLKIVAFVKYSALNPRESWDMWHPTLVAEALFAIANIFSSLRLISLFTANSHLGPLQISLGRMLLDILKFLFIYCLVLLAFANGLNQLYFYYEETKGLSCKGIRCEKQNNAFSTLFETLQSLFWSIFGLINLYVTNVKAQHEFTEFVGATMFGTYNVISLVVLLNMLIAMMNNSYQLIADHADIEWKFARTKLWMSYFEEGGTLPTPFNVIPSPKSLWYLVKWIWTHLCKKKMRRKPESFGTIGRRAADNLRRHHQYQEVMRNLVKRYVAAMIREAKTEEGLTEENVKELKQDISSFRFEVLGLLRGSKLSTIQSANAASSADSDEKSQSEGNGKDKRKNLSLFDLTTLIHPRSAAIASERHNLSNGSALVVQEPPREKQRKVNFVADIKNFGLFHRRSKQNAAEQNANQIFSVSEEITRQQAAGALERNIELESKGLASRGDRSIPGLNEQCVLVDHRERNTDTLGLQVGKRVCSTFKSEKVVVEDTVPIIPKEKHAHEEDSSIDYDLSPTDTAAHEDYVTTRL

[14] = cytotoxicity in HEK-293T cells, dose response, cytotoxicity control for TCR NF-kB inhibitor project, luminescence, T-cell screen hits (AID 489026); format: functional, cell-based;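 further: cells exposed to compound about 14 hours before the viability readout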
[15] = biological target: T2, Insulin-degrading enzyme (Homo sapiens, UniProt P14735); assay: activators of recombinant IDE enzyme, dose response, counter-screen for IDE activator project, biochemical, fluorescence polarization (AID 588681)
T2 sequence (P14735 whole entry): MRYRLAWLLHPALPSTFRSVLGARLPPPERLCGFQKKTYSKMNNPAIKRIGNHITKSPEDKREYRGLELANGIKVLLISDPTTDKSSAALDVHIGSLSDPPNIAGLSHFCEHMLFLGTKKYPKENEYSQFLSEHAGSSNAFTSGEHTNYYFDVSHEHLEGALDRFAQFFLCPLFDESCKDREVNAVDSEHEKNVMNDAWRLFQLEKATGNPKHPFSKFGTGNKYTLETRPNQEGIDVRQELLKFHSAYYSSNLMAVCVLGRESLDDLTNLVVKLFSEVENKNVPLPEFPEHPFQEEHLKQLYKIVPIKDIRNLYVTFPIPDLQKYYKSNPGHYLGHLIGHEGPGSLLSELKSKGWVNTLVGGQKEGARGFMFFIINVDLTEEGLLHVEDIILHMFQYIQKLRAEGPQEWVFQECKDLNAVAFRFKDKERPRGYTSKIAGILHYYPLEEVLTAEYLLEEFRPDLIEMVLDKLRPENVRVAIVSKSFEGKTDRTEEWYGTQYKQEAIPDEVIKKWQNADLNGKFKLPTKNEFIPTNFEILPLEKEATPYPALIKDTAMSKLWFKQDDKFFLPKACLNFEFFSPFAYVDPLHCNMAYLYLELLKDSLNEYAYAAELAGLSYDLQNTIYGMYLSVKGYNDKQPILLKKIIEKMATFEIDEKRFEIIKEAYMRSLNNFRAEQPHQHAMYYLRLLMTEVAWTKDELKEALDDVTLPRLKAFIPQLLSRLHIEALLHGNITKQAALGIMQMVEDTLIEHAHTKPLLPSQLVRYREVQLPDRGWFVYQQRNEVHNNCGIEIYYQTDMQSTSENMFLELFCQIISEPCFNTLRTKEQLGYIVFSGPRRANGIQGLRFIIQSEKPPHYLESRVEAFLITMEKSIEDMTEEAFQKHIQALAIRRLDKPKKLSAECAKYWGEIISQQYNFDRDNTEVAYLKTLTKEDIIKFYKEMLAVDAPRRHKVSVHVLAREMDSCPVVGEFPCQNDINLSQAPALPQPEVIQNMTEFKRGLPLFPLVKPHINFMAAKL

[16] = test system: BJ; assay: cytotoxicity toward Ras-transformed BJeLR fibroblasts, dose response, cell-based, alamar blue fluorescence, cherrypicked samples (AID 2631); format: functional; details: Homo sapiens;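 further: confirmatory dose-response assay in RAS-dependent BJ fibroblasts engineered with TERT, LT and ST, with cytotoxicity read by fluorescence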
[17] = biological target: T2, Insulin-degrading enzyme; assay: activators of endogenous IDE in HEK cells, dose response, cell-based, fluorescence polarization (AID 588439); format: functional
[18] = test system: INS1; assay: beta cell apoptosis inhibitors, cytokine rescue, dose response, luminescence, retest (AID 449756); format: functional, cell-based; details: Rattus norvegicus;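 further: cell death triggered by IL-1 beta plus TNF-alpha plus IFN-gamma mixture; protective hits raise ATP signal compared with cytokine alone wells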
[19] = test system: HEK293; assay: HEK cell cytotoxicity by LDH release, dose response, cytotoxicity control for IDE activator project, fluorescence, HEK cells (AID 588440); format: functional, cell-based; details: Homo sapiens;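 further: cytotoxicity by LDH release measuring loss of membrane integrity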
[20] = test system: HEK293; assay: optical interference in Abeta FP readout, dose response, artefact control for IDE activator project, biochemical, fluorescence polarization (AID 588442); format: functional, cell-based; details: Homo sapiens
[21] = Shn3 3'UTR reporter inhibitors, dose response, cell-based, Clone20 osteoblasts, firefly luciferase, cherry-picked (AID 624132); format: functional;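 further: firefly luciferase luminescence from reporter carrying the Shn3 3'UTR in osteoblasts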
[22] = HepG2 cell cytotoxicity, dose response, cytotoxicity control for Shn3 inhibitor project, CellTiter-Glo, cherry-picked (AID 624134); format: functional, cell-based
[23] = control 3'UTR Renilla luciferase suppression, dose response, counter-screen for Shn3 inhibitor project, cell-based, Clone20-Shn3RL, cherry-picked (AID 624133); format: functional
[24] = biological target: Peroxisome proliferator-activated receptor gamma/Nuclear receptor corepressor 2 (Homo sapiens, UniProt P37231+Q9Y618); assay: Counterscreen for NR2E3 inverse agonists: TR-FRET-based biochemical high throughput dose response assay to identify inverse agonists of the interaction between peroxisome proliferator-activated receptor gamma (PPARg) and nuclear receptor co-repressor 2 (NCOR2).; format: functional
[25] = biological target: Photoreceptor-specific nuclear receptor (Homo sapiens, UniProt Q9Y5X4); assay: NR2E3 inverse agonists, dose response, biochemical, TR-FRET (AID 463256); format: functional
[26] = test system: CHO-K1; assay: (§1) Counterscreen for antagonists of the orexin 1 receptor (OX1R; HCRTR1): Homogeneous time resolved fluorescence (HTRF)-based cell-based dose response assay to identify antagonists of the parental CHO-K1 cell line. [Related pubchem assays (depositor defined):AID434989, AID435008, AID463079, AID485270, AID492963, AID492964, AID492965, AID493232, AID504699, AID504701]; format: functional; details: Cricetulus griseus
[27] = as §1, with “Fluorescence-based” for “Homogeneous time resolved fluorescence (HTRF)-based”, “cell-based high throughput” for “cell-based”, “CHO” for “CHO-K1”; format: functional
[28] = biological target: T3, Orexin/Hypocretin receptor type 1 (Homo sapiens, UniProt O43613); assay: Homogeneous Time Resolved Fluorescence (HTRF)-based cell-based high throughput dose response assay for antagonists of the orexin 1 receptor (OX1R; HCRTR1). [Related pubchem assays (depositor defined):AID434989, AID435008, AID463079, AID485270, AID492963, AID492964, AID492965, AID493232, AID504717, AID504718]; format: functional
[29] = biological target: T3, Orexin/Hypocretin receptor type 1; assay: Fluorescence-based cell-based high throughput dose response assay for antagonists of the orexin 1 receptor (OX1R; HCRTR1). [Related pubchem assays (depositor defined):AID434989, AID435008, AID463079, AID485270, AID492963, AID492964, AID492965, AID493232, AID504717, AID504718]; format: functional
[30] = biological target: T4, Orexin receptor type 2 (Homo sapiens, UniProt O43614); assay: Counterscreen assay for antagonists of the orexin 1 receptor (OX1R; HCRTR1): Fluorescence-based cell-based dose response assay for antagonists of the orexin 2 receptor (OX2R; HCRTR2), run by assay provider.; format: functional
[31] = biological target: T4, Orexin receptor type 2; assay: Counterscreen assay for antagonists of the orexin 1 receptor (OX1R; HCRTR1): Homogeneous Time Resolved Fluorescence (HTRF)-based cell-based dose response assay for antagonists of the orexin 2 receptor (OX2R; HCRTR2), run by assay provider.; format: functional
[32] = biological target: Protein disulfide-isomerase (Homo sapiens, UniProt P07237); assay: PDI inhibitors, insulin aggregation turbidity, dose response, biochemical, absorbance, cherry-picked samples (AID 602350); format: functional
Protein disulfide-isomerase, sequence (P07237 whole entry): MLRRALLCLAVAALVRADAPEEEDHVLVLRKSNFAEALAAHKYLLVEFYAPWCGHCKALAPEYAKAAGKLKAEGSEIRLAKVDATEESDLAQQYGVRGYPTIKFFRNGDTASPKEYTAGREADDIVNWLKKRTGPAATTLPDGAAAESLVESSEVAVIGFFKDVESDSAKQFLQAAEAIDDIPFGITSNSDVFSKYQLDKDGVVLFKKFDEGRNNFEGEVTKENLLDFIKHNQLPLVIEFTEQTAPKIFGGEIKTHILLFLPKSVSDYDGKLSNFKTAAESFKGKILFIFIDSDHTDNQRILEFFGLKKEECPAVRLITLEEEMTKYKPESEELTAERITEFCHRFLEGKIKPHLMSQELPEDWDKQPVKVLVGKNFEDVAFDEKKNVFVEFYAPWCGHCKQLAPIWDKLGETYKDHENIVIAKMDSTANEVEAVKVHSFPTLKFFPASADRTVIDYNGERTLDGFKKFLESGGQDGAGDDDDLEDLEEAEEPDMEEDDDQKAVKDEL

T3 sequence (O43613 whole entry): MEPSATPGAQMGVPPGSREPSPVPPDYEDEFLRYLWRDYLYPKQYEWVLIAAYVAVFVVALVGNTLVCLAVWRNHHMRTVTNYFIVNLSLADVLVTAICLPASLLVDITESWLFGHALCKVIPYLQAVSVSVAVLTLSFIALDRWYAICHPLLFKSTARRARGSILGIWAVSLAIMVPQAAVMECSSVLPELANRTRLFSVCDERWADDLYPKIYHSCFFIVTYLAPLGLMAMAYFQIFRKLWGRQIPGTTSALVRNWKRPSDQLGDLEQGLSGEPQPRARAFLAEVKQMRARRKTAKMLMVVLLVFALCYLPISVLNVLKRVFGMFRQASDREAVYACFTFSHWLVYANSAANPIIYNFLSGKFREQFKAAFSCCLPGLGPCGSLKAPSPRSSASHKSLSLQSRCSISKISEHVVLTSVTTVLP
T4 sequence (O43614 whole entry): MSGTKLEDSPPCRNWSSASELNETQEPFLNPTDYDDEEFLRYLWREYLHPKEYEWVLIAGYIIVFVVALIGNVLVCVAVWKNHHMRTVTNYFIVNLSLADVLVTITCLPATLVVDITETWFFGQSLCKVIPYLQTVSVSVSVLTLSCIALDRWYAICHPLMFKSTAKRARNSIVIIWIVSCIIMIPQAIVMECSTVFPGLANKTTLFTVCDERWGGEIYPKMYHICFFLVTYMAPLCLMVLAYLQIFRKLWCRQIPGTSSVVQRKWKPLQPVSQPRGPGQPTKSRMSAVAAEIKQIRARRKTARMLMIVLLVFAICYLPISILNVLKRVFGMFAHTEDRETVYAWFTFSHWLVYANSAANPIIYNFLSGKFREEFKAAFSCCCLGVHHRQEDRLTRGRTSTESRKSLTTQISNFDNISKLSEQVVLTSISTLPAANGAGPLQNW
Photoreceptor-specific nuclear receptor, sequence (Q9Y5X4 whole entry): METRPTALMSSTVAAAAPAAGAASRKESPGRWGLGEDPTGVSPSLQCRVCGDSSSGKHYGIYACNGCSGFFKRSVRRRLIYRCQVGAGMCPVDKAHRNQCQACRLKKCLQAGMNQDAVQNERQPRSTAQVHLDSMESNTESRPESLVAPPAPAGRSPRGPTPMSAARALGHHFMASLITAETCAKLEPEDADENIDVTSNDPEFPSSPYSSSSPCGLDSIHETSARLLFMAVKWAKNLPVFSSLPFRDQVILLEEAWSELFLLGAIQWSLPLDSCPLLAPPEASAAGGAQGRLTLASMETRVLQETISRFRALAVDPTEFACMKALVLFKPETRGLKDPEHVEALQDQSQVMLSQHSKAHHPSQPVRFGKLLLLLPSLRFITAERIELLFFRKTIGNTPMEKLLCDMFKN
Beta-galactosidase, sequence (Q8VNN2 whole entry): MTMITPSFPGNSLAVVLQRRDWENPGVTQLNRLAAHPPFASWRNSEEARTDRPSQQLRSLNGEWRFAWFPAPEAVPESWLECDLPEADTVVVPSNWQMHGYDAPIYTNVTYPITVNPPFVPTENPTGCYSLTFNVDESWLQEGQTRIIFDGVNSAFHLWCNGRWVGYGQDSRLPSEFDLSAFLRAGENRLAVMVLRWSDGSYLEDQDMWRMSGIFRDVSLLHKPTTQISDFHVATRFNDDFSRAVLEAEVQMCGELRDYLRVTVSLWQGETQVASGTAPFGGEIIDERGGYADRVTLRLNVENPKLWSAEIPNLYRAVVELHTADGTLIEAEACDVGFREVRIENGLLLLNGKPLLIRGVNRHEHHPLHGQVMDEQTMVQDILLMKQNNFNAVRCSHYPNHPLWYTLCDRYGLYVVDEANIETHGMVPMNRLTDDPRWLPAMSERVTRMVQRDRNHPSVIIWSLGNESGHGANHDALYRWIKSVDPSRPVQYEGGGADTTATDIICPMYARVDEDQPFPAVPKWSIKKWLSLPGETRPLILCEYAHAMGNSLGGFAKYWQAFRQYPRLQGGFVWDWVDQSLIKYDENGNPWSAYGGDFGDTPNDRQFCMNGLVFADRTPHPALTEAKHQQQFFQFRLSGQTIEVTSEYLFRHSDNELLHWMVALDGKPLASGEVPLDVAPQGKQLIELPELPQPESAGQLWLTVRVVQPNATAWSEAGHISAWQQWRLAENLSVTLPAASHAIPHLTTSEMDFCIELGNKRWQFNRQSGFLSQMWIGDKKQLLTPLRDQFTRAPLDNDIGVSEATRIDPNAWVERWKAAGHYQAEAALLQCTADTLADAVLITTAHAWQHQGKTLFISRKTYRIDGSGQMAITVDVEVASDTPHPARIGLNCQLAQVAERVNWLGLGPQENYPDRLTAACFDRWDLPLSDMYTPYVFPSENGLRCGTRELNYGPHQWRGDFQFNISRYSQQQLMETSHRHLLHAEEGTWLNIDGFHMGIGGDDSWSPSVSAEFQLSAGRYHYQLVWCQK

Q: Which EC50 [1] does the source give for `CNC[C@H](CC1CCCCC1)NC[C@H](Cc1ccccc1)NCCC12CC3CC(CC(C3)C1)C2` here?
A: 136 µM (inconclusive)

Q: And the EC50 [2]?
A: 5.5 µM (active)

Q: What about the EC50 [3] of the same molecule?
A: 3.27 µM (active)

Q: And the EC50 [4]?
A: 2.64 µM (inconclusive)

Q: And the EC50 [5]?
A: > 120 µM (not active)

Q: And the EC50 [6]?
A: > 120 µM (not active)

Q: And the EC50 [7]?
A: 5.14 µM (inconclusive)

Q: And the EC50 [8]?
A: 3.71 µM (active)

Q: What about the EC50 [9] of the same molecule?
A: 2 µM (active)

Q: And the EC50 [10]?
A: 4.21 µM (active)

Q: And the EC50 [11]?
A: 8.1 µM (active)

Q: And the IC50 [12]?
A: > 66.6 µM (inactive)

Q: What about the EC50 [13] of the same molecule?
A: 8.41 µM (active)

Q: What about the IC50 [14] of the same molecule?
A: 22.8 µM (inactive)

Q: What about the EC50 [15] of the same molecule?
A: > 54.7 µM (inactive)

Q: And the EC50 [16]?
A: 0.509 µM (inconclusive)

Q: What about the EC50 [17] of the same molecule?
A: 7.02 µM (active)

Q: What about the AC50 [18] of the same molecule?
A: 3.77 µM (active)

Q: What about the IC50 [19] of the same molecule?
A: 3.37 µM (active)

Q: What about the EC50 [20] of the same molecule?
A: > 55.9 µM (inactive)

Q: And the AC50 [21]?
A: 5.51 µM (active)

Q: And the AC50 [22]?
A: 4.47 µM (active)

Q: What about the AC50 [23] of the same molecule?
A: 7.45 µM (active)

Q: Which results are given for `Cc1nc2ccc(NC(=O)c3oc4ccc(F)cc4c3C)cc2s1`?
A: IC50 [24]: 8.73 µM (active); IC50 [25]: > 39.8 µM (not active); IC50 [26]: > 66.2 µM (inactive); IC50 [27]: > 49.7 µM (inactive); IC50 [28]: 0.386 µM (active); IC50 [29]: 1.76 µM (active); IC50 [30]: > 88.8 µM (inactive); IC50 [31]: > 50 µM (inactive)

Q: For `CN(C)C(=O)CSc1nnc([C@H](Cc2c[nH]c3ccccc23)NC(=O)OC(C)(C)C)o1`, which AC50 [32] is on record?
A: 19.5 µM (active)
